Source: ChEMBL document CHEMBL3885861, “Open TG-GATES”

Species on record: Rattus norvegicus
Test: Open TG-GATES - Regimen: Daily Repeat
Format: toxicity, organism-based, Sprague-Dawley
Set-up: regimen Daily Repeat, gender Male, age 6 weeks
Conditions: in vivo, po, route gavage; for APTT / Bas / Eos / Fbg / Hb / Ht / Lym / MCH / MCHC / MCV / Mono / Neu / PT / Plat / RBC / Ret / WBC: tissue Blood; for KIDNEY_L / KIDNEY_R / KIDNEY_TOTAL: tissue Kidney; for LIVER: tissue Liver; for A/G / ALP / ALT / AST / BUN / CRE / Ca / Cl / DBIL / GLC / IP / K / LDH / Na / PL / RALB / TBIL / TC / TG / TP / gamma-GTP: tissue Plasma
[1] = 0 mg/kg, 72 h, dose level Control, time 3 day
[2] = 0 mg/kg, […], dose level Control, time 7 day
[3] = 0 mg/kg, […], dose level Control, time 14 day
[4] = 0 mg/kg, […], dose level Control, time 28 day
[5] = 10 mg/kg, 72 h, dose level Low, time 3 day
[6] = 10 mg/kg, […], dose level Low, time 7 day
[7] = 10 mg/kg, […], dose level Low, time 14 day
[8] = 10 mg/kg, […], dose level Low, time 28 day

## CCC1(c2ccccc2)C(=O)NC(=O)NC1=O [PHENOBARBITAL]
[1]
  TERMINAL_BW: 222.1 g
  APTT: 15.6 s
  Bas: 0%
  Eos: 0.6%
  Fbg: 225 mg/dL
  Hb: 13.2 g/dL
  Ht: 39.4%
  Lym: 76.8%
  MCH: 22.4 pg
  MCHC: 33.6%
  MCV: 66.9 fL
  Mono: 7.4%
  Neu: 15.2%
  PT: 12 s
  Plat: 126.6 x10_4/uL
  RBC: 589.6 x10_4/ul
  Ret: 7.7%
  WBC: 129.8 x10_2/uL
  KIDNEY_L: 0.9 g
  KIDNEY_R: 1 g
  KIDNEY_TOTAL: 1.9 g
  LIVER: 11.2 g
  A/G: 1.6
  ALP: 912.8 IU/L
  ALT: 34 IU/L
  AST: 61.4 IU/L
  BUN: 16 mg/dL
  CRE: 0.5 mg/dL
  Ca: 10.8 mg/dL
  Cl: 106.6 meq/L
  DBIL: 0.01 mg/dL
  GLC: 201.8 mg/dL
  IP: 7.9 mg/dL
  K: 4.9 meq/L
  LDH: 84.2 IU/L
  Na: 139.4 meq/L
  PL: 158.6 mg/dL
  RALB: 3.6 g/dL
  TBIL: 0.4 mg/dL
  TC: 80.2 mg/dL
  TG: 142.6 mg/dL
  TP: 5.9 g/dL
  gamma-GTP: 1.8 IU/L
[2]
  TERMINAL_BW: 254.1 g
  APTT: 15.9 s
  Bas: 0%
  Eos: 0.8%
  Fbg: 224.8 mg/dL
  Hb: 14.2 g/dL
  Ht: 42.7%
  Lym: 82.2%
  MCH: 21.9 pg
  MCHC: 33.4%
  MCV: 65.5 fL
  Mono: 6.8%
  Neu: 10.4%
  PT: 11.9 s
  Plat: 110.9 x10_4/uL
  RBC: 652 x10_4/ul
  Ret: 6.1%
  WBC: 125.6 x10_2/uL
  KIDNEY_L: 1 g
  KIDNEY_R: 1 g
  KIDNEY_TOTAL: 2.1 g
  LIVER: 12.4 g
  A/G: 1.5
  ALP: 1114.2 IU/L
  ALT: 32 IU/L
  AST: 62 IU/L
  BUN: 19.2 mg/dL
  CRE: 0.5 mg/dL
  Ca: 10.9 mg/dL
  Cl: 104.6 meq/L
  DBIL: 0.054 mg/dL
  GLC: 206.4 mg/dL
  IP: 7.9 mg/dL
  K: 4.9 meq/L
  LDH: 99.8 IU/L
  Na: 139.4 meq/L
  PL: 158.2 mg/dL
  RALB: 3.5 g/dL
  TBIL: 0.3 mg/dL
  TC: 73 mg/dL
  TG: 150 mg/dL
  TP: 5.9 g/dL
  gamma-GTP: 1.4 IU/L
[3]
  TERMINAL_BW: 296 g
  APTT: 16.5 s
  Bas: 0%
  Eos: 0.4%
  Fbg: 241.4 mg/dL
  Hb: 14.7 g/dL
  Ht: 44.1%
  Lym: 88.2%
  MCH: 20.6 pg
  MCHC: 33.4%
  MCV: 61.9 fL
  Mono: 3.6%
  Neu: 7.8%
  PT: 11.6 s
  Plat: 113.2 x10_4/uL
  RBC: 713.2 x10_4/ul
  Ret: 5.1%
  WBC: 153.7 x10_2/uL
  KIDNEY_L: 1.1 g
  KIDNEY_R: 1.1 g
  KIDNEY_TOTAL: 2.2 g
  LIVER: 13.5 g
  A/G: 1.5
  ALP: 764.6 IU/L
  ALT: 31.4 IU/L
  AST: 63.4 IU/L
  BUN: 19 mg/dL
  CRE: 0.6 mg/dL
  Ca: 10.6 mg/dL
  Cl: 105.4 meq/L
  DBIL: 0.002 mg/dL
  GLC: 207.8 mg/dL
  IP: 8.4 mg/dL
  K: 4.5 meq/L
  LDH: 102.4 IU/L
  Na: 141.4 meq/L
  PL: 159.4 mg/dL
  RALB: 3.8 g/dL
  TBIL: 0.2 mg/dL
  TC: 75.4 mg/dL
  TG: 138.6 mg/dL
  TP: 6.3 g/dL
  gamma-GTP: 0.8 IU/L
[4]
  TERMINAL_BW: 396.2 g
  APTT: 17 s
  Bas: 0%
  Eos: 0.8%
  Fbg: 236 mg/dL
  Hb: 14.8 g/dL
  Ht: 44.6%
  Lym: 84.4%
  MCH: 19.3 pg
  MCHC: 33.2%
  MCV: 58.2 fL
  Mono: 5.6%
  Neu: 9.4%
  PT: 12 s
  Plat: 109 x10_4/uL
  RBC: 766 x10_4/ul
  Ret: 2.6%
  WBC: 129.1 x10_2/uL
  KIDNEY_L: 1.4 g
  KIDNEY_R: 1.4 g
  KIDNEY_TOTAL: 2.8 g
  LIVER: 16.7 g
  A/G: 1.5
  ALP: 596.8 IU/L
  ALT: 29.6 IU/L
  AST: 56.2 IU/L
  BUN: 20 mg/dL
  CRE: 0.4 mg/dL
  Ca: 10.4 mg/dL
  Cl: 106.4 meq/L
  DBIL: 0.006 mg/dL
  GLC: 201 mg/dL
  IP: 8 mg/dL
  K: 4.5 meq/L
  LDH: 86 IU/L
  Na: 140.4 meq/L
  PL: 165.8 mg/dL
  RALB: 3.9 g/dL
  TBIL: 0.3 mg/dL
  TC: 76.4 mg/dL
  TG: 213.2 mg/dL
  TP: 6.5 g/dL
  gamma-GTP: 1.4 IU/L
[5]
  TERMINAL_BW: 224.1 g
  APTT: 15.6 s
  Bas: 0%
  Eos: 1%
  Fbg: 226.8 mg/dL
  Hb: 13.3 g/dL
  Ht: 39.6%
  Lym: 71.6%
  MCH: 22 pg
  MCHC: 33.6%
  MCV: 65.5 fL
  Mono: 11.4%
  Neu: 16.4%
  PT: 11.9 s
  Plat: 126.7 x10_4/uL
  RBC: 605.2 x10_4/ul
  Ret: 7.9%
  WBC: 126 x10_2/uL
  KIDNEY_L: 1 g
  KIDNEY_R: 1 g
  KIDNEY_TOTAL: 2 g
  LIVER: 12 g
  A/G: 1.5
  ALP: 757.2 IU/L
  ALT: 34.6 IU/L
  AST: 61.6 IU/L
  BUN: 15.2 mg/dL
  CRE: 0.5 mg/dL
  Ca: 10.6 mg/dL
  Cl: 106.6 meq/L
  DBIL: 0.018 mg/dL
  GLC: 197.2 mg/dL
  IP: 8.3 mg/dL
  K: 4.8 meq/L
  LDH: 106.8 IU/L
  Na: 139 meq/L
  PL: 147.8 mg/dL
  RALB: 3.5 g/dL
  TBIL: 0.3 mg/dL
  TC: 83.4 mg/dL
  TG: 104.8 mg/dL
  TP: 5.8 g/dL
  gamma-GTP: 1.6 IU/L
[6]
  TERMINAL_BW: 253.6 g
  APTT: 16.3 s
  Bas: 0%
  Eos: 1%
  Fbg: 236 mg/dL
  Hb: 13.8 g/dL
  Ht: 41.2%
  Lym: 80.6%
  MCH: 21.8 pg
  MCHC: 33.4%
  MCV: 65.2 fL
  Mono: 3%
  Neu: 15.4%
  PT: 11.6 s
  Plat: 113.9 x10_4/uL
  RBC: 632.6 x10_4/ul
  Ret: 6.6%
  WBC: 95.6 x10_2/uL
  KIDNEY_L: 1.1 g
  KIDNEY_R: 1.1 g
  KIDNEY_TOTAL: 2.1 g
  LIVER: 13.7 g
  A/G: 1.5
  ALP: 686.4 IU/L
  ALT: 28 IU/L
  AST: 57 IU/L
  BUN: 18.4 mg/dL
  CRE: 0.6 mg/dL
  Ca: 10.9 mg/dL
  Cl: 105.2 meq/L
  DBIL: 0.034 mg/dL
  GLC: 210 mg/dL
  IP: 8.5 mg/dL
  K: 4.7 meq/L
  LDH: 86.8 IU/L
  Na: 139.6 meq/L
  PL: 161.2 mg/dL
  RALB: 3.6 g/dL
  TBIL: 0.4 mg/dL
  TC: 82.4 mg/dL
  TG: 129.2 mg/dL
  TP: 6 g/dL
  gamma-GTP: 1.2 IU/L
[7]
  TERMINAL_BW: 311.1 g
  APTT: 16.6 s
  Bas: 0%
  Eos: 0.2%
  Fbg: 234.6 mg/dL
  Hb: 15 g/dL
  Ht: 45.1%
  Lym: 84.6%
  MCH: 20.6 pg
  MCHC: 33.3%
  MCV: 61.7 fL
  Mono: 5.8%
  Neu: 9.6%
  PT: 11.4 s
  Plat: 114.1 x10_4/uL
  RBC: 731.2 x10_4/ul
  Ret: 5%
  WBC: 141.4 x10_2/uL
  KIDNEY_L: 1.2 g
  KIDNEY_R: 1.2 g
  KIDNEY_TOTAL: 2.3 g
  LIVER: 15.6 g
  A/G: 1.6
  ALP: 858.8 IU/L
  ALT: 33.8 IU/L
  AST: 63.2 IU/L
  BUN: 17.8 mg/dL
  CRE: 0.6 mg/dL
  Ca: 11.3 mg/dL
  Cl: 106 meq/L
  DBIL: 0.004 mg/dL
  GLC: 193.8 mg/dL
  IP: 9.1 mg/dL
  K: 4.7 meq/L
  LDH: 100 IU/L
  Na: 141.6 meq/L
  PL: 162.8 mg/dL
  RALB: 4 g/dL
  TBIL: 0.2 mg/dL
  TC: 83.8 mg/dL
  TG: 127.6 mg/dL
  TP: 6.6 g/dL
  gamma-GTP: 1 IU/L
[8]
  TERMINAL_BW: 391.1 g
  APTT: 17.6 s
  Bas: 0%
  Eos: 1%
  Fbg: 226.6 mg/dL
  Hb: 15 g/dL
  Ht: 43.9%
  Lym: 86.6%
  MCH: 20.1 pg
  MCHC: 34.1%
  MCV: 58.9 fL
  Mono: 3.8%
  Neu: 8.8%
  PT: 12.1 s
  Plat: 97.5 x10_4/uL
  RBC: 746 x10_4/ul
  Ret: 2.9%
  WBC: 114.8 x10_2/uL
  KIDNEY_L: 1.4 g
  KIDNEY_R: 1.3 g
  KIDNEY_TOTAL: 2.7 g
  LIVER: 16.8 g
  A/G: 1.6
  ALP: 707.4 IU/L
  ALT: 29.6 IU/L
  AST: 56.2 IU/L
  BUN: 21.6 mg/dL
  CRE: 0.3 mg/dL
  Ca: 10.3 mg/dL
  Cl: 108.4 meq/L
  DBIL: 0.026 mg/dL
  GLC: 195.8 mg/dL
  IP: 7.4 mg/dL
  K: 5 meq/L
  LDH: 84.2 IU/L
  Na: 139.8 meq/L
  PL: 148 mg/dL
  RALB: 3.9 g/dL
  TBIL: 0.4 mg/dL
  TC: 69.6 mg/dL
  TG: 164.4 mg/dL
  TP: 6.3 g/dL
  gamma-GTP: 1.4 IU/L
